≈ marks a conversion by molar mass, not a printed value. Read-outs that look alike come from different tables or passages of the source.
Legend:
[1] = Water solubility at 25° C.; format: physicochemical; settings: for solubility: water, 25 °C
[2] = Crystals of the solid organic compound present in the composition at 25° C. or not; format: physicochemical; settings: added dissolved in ethanol/water mixture; cationic surfactant and high melting point fatty compounds; especially at higher amount
[3] = known property; cited from earlier work
[4] = Di-electric constant, BI-870 Liquid Dielectric Constant Meter; format: physicochemical; settings: third liquid compounds; room temperature (23.1-23.4° C.)
Procedure: Dielectric constant is measured at room temperature (23.1 ˜23.4° C.) using BI-870 Liquid Dielectric Constant Meter (Brookhaven Instruments, Corp., New York).

[5] = solid organic compounds, 25° C.
[6] = third liquid compounds, read-out: Solubility in H2O
[7] = first liquid oily compounds, read-out: Solubility in H2O

## Cc1cc(C2CCCCC2)n(O)c(=O)c1 [Ciclopirox Olamine, reference compound]
[1]; [5]
  Water Solubility: 4450 µg/mL

## Cc1cc(CC(C)CC(C)(C)C)n(O)c(=O)c1 (stereo not shown) [Piroctone, reference compound]
[1]; solid organic compounds, 25° C., read-out: Water Solubility
  solubility: 240 µg/mL (≈ 1010 µM)

## CCCCCCCCCCCC(=O)N(C)CC(=O)OC(C)C [Isoropyl N-Lauroyl Sarcosinate]
[1]; first liquid oily compounds
  Solubility in H2O: Negligible (lower than 0.1) g/L

## Cc1cc(CC(C)CC(C)(C)C)n(O)c(=O)c1.NCCO (stereo not shown) [Piroctone Olamine]
[2]
  Crystal formation in aqueous hair conditioning compositions: forms crystals
[3]
  Solubility in water, in words: very limited solubility in water
[1]; [5]
  Water Solubility: 30 µg/mL

## OCCOc1ccccc1 [Phenoxyethanol]
[1]; [6]
  solubility: 26000 µg/mL (≈ 188000 µM)

## C=CC(C)CCCC(C)(C)O (stereo not shown) [Dihydro Myrcenol]
[1]; first liquid oily compounds
  Solubility in H2O: Negligible (lower than 0.1) g/L

## OCc1ccccc1 [Benzyl Alcohol]
[4]
  Di-electric constant: 13.69
[1]; [6]
  solubility: 43000 µg/mL (≈ 398000 µM)

## CCCCCC1C(=O)CCC1CC(=O)OC (stereo not shown) [Methyl Dihydro Jasmonate]
[1]; [7]
  solubility: 91.7 µg/mL (≈ 405 µM)

## CCCCCCC(C=O)=Cc1ccccc1 [Hexyl Cinnamic Aldehyde]
[1]; [7]
  solubility: 2.75 µg/mL (≈ 12.7 µM)

## Cc1cc(C2CCCCC2)n(O)c(=O)c1 [Ciclopirox, reference compound]
[1]; [5]
  Water Solubility: 1410 µg/mL
